Data: ChEMBL document CHEMBL1130306, “Asymmetric synthesis of a conformationally constrained N-phosphonoalkyl dipeptide” (Bioorg Med Chem Lett, 1997)
Active and inactive are the calls of the source. The calls are words filed in the database; no cut-off is given here.

Columns and labels:
[1] = target: T1, Interstitial collagenase (Homo sapiens) (UniProt P03956); experiment: Inhibition of human recombinant fibroblast collagenase (MMP-1) at 10e-4 M (No significant activity)
T1 sequence (whole entry): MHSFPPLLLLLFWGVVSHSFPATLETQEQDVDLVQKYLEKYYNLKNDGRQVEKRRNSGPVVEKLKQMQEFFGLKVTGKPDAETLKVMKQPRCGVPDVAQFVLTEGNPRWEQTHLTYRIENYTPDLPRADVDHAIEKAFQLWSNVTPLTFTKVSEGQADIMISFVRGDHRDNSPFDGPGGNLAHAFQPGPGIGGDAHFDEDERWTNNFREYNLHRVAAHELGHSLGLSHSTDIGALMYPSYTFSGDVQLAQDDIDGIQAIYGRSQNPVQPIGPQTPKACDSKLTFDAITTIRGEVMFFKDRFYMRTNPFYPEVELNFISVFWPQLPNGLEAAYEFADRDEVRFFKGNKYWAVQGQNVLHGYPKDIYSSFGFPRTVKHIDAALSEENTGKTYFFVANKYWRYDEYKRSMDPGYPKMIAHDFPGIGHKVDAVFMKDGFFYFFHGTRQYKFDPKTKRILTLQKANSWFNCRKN

[2] = target: 72 kDa type IV collagenase (Homo sapiens) (UniProt P08253); experiment: Inhibition of human recombinant gelatinase-A (MMP-2) at 10e-4 M (No significant activity)
[3] = target: Matrix metalloproteinase-9 (Homo sapiens) (UniProt P14780); experiment: Inhibition of human recombinant Matrix metalloprotease-9 at 10e-4 M (No significant activity)
Sequence of Matrix metalloproteinase-9 (Homo sapiens) (P14780 whole entry): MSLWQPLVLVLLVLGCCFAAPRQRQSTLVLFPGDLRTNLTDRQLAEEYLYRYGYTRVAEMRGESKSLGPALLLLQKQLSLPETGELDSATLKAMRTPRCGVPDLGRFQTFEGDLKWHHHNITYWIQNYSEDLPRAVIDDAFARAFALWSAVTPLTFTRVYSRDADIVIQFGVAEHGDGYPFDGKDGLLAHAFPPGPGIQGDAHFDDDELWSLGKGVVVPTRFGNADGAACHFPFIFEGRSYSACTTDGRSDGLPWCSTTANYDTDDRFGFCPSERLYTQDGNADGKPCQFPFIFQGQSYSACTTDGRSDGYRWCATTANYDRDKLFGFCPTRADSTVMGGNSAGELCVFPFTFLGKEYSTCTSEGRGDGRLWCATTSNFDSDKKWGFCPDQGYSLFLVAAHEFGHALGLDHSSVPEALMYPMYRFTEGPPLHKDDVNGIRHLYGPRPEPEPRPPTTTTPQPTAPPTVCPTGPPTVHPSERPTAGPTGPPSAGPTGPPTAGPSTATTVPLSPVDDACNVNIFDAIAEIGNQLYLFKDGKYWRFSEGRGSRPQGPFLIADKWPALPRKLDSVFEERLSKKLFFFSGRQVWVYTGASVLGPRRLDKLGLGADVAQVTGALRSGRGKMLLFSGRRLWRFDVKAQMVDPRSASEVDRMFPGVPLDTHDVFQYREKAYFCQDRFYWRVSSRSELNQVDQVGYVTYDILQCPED

Sequence of 72 kDa type IV collagenase (Homo sapiens) (P08253 110-660 limits assumed): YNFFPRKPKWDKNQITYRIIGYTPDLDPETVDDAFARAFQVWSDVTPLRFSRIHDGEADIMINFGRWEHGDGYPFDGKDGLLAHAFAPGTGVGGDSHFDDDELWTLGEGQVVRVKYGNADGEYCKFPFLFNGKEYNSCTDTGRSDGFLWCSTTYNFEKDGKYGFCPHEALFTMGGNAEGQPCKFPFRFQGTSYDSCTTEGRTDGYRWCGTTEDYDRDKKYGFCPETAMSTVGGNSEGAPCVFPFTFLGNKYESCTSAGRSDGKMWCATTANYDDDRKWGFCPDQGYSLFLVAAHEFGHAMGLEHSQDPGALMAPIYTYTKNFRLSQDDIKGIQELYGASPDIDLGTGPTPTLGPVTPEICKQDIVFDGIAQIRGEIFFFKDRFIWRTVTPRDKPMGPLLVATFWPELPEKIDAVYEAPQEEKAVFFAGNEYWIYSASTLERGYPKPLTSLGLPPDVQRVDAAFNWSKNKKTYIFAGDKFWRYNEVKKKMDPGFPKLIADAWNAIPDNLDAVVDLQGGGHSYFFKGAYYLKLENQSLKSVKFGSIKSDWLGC

Row | Activity [1] | Activity [2] | Activity [3] | SMILES
1 | inactive | inactive | inactive | CNC(=O)[C@H](Cc1c[nH]c2ccccc12)NC(=O)[C@H]1CCC[C@@H](P(=O)(O)O)N1
2 | inactive | inactive | inactive | CNC(=O)[C@H](Cc1c[nH]c2ccccc12)NC(=O)[C@@H]1CCC[C@@H](P(=O)(O)O)N1
